Data set [1] relates to HeLa cells. In words: Intrinsic cytotoxicity, EZ4U Cell Proliferation and Cytotoxicity Assay. The following applies: for cells died: compound at 100 μM, 3 days. The data set is classed as cell-based, human. Here is the method: (§1) First, we assessed the toxicity of the compounds to HeLa cells (cervical cancer cells). Analysis of the intrinsic cytotoxicity of the compounds was examined in the EZ4U Cell Proliferation and Cytotoxicity Assay (Biomedica, Austria). The tested compounds were added to the medium (the volume of added reagents was 1/100 of the total volume of the culture medium, and the amount of DMSO (dimethyl sulfoxide) was 1% of the final volume), and the cell culture was monitored for 3 days. Control cells were grown in the presence of 1% DMSO. Intrinsic cytotoxicity of the compounds was either absent or negligible at concentrations up to 100 μM (>80% live cells) with the exception of compounds 2b, 2c, and 7, in the presence of which, at a concentration of 100 μM, 30–45% of the cells died (Table 1 and Figure 1).
(§2) Intrinsic toxicity of the compounds to human cell line HeLa (cervical cancer) was examined by means of the EZ4U Cell Proliferation and Cytotoxicity Assay (Biomedica, Wien, Austria), according to the manufacturer’s protocols. The cells were grown in Iscove’s modified Dulbecco’s medium (IMDM) with 40 μg/mL gentamicin, 50 IU/mL penicillin, 50 μg/mL streptomycin (MP Biomedicals), and 10% of fetal bovine serum (Biolot) in a 5% CO2 atmosphere. After formation of a 30–50%-confluent monolayer, one of the tested compounds was added to the medium (the volume of the added reagents was 1/100 of the total volume of the culture medium, and the amount of DMSO was 1% of the final volume), and the cell culture was monitored for 3 days. Control cells were grown in the presence of 1% DMSO. To assess the influence of the inhibitors on the cytotoxic effect of topotecan, the latter from the manufacturer ACTAVIS GROUP PTC ehf. (Bucharest, Romania) was used. First of all, 50% cytotoxic concentrations of topotecan and of each inhibitor were determined to attain a defined single-agent effect. Second, three independent tests were performed with each inhibitor in combination with topotecan.

A further data set has as its target Tdp1 (Homo sapiens, UniProt Q9NUW8). In words: Real-time detection of Tdp1 activity (fluorophore-quencher oligonucleotide biosensor). In kind it is biochemical. The following applies: 1.5 nM purified Tdp1, 50 nM biosensor, 26 °C, three independent experiments; read-out: IC50 (inhibition of Tdp-1). The source says:
Previously, we designed a real-time oligonucleotide biosensor based on the capability of Tdp1 to remove fluorophore quenchers from the 3′ end of DNA [27]. The single-stranded substrate was a 16-mer oligonucleotide containing both a 5′-FAM fluorophore donor and a quenching 3′-BHQ moiety. When the quencher is removed by Tdp1, FAM fluorescence flares up and can be detected by a fluorimeter. Fluorescence intensity diminishes in the presence of an inhibitor; curves of the obtained Tdp1 activity versus inhibitor concentration can be used to calculate IC50 values. We also investigated some structurally related compounds obtained by previously developed methods; these compounds feature a modification either in a carbohydrate or heterocyclic moiety (Table 1).
This procedure was reported in our previous work. The approach consists of fluorescence intensity measurement in a reaction of quencher removal from a fluorophore quencher–coupled DNA oligonucleotide catalyzed by Tdp1 in the presence of an inhibitor (the control samples contained 1% of DMSO). The reaction mixtures (200 μL) contained Tdp1 buffer (50 mM Tris-HCl pH 8.0, 50 mM NaCl, and 7 mM β-mercaptoethanol), 50 nM biosensor, an inhibitor being tested, and purified Tdp1 (1.5 nM). The biosensor was a single-stranded oligonucleotide (5′-[FAM] AAC GTC AGGGTC TTC C [BHQ]-3′) containing a fluorophore at the 5′ end (5,6-FAM) and Black Hole Quencher 1 (BHQ) at the 3′ end and was synthesized in the Laboratory of Biomedical Chemistry at the Institute of Chemical Biology and Fundamental Medicine (Novosibirsk, Russia).
The reactions were incubated at a constant temperature of 26 °C on a POLARstar OPTIMA fluorimeter (BMG LABTECH, GmbH, Ortenberg, Germany) to measure fluorescence every 55 s (ex. 485/em. 520 nm) during the linear phase (here, data from minute 0 to minute 8). The values of IC50 were determined using a six-point concentration response curve in three independent experiments and were calculated using MARS Data Analysis 2.0 (BMG LABTECH).

The subject of data set [2] is HeLa cells. In words: Cytotoxicity in combination with topotecan, EZ4U assay. In kind it is cell-based. The following applies: for change of cytotoxicity of the compound in the presence of topotecan (synergy): compound 1, 5, 20, 100 μM with 2 μM topotecan, Figure 2; for sensitizing effect on cytotoxicity of topotecan: Figure 3. Here is the method:
To study the influence of the inhibitors on the cytotoxic effect of topotecan, the latter from the manufacturer ACTAVIS GROUP PTC ehf. was used. To select a nontoxic but effective concentration of the nucleoside compounds, we investigated their cytotoxicity in the presence of 2 μM topotecan (concentration causing the death of half the HeLa cells). Three independent cytotoxicity assays were performed with each inhibitor in combination with topotecan. For the cells treated with a nucleoside derivative alone, values in the control wells treated with 1% DMSO were set to 100% viability. For the cells treated with a combination of the drugs, the viability of cells treated only with topotecan was set to 100%.
as §2

A short description of data set [3]: Intrinsic cytotoxicity, EZ4U Cell Proliferation and Cytotoxicity Assay. In kind it is cell-based, human. The following applies: human, HeLa cells (cervical cancer), 3 days, EZ4U assay. The procedure:
as §1, §2

Setting [4] is: compound at 20 μM, various doses of topotecan.

Entries after “also recorded” stand apart in the source; their conditions may differ. Some results are limits rather than exact numbers.

Sequence of Tdp1 (Q9NUW8 whole entry): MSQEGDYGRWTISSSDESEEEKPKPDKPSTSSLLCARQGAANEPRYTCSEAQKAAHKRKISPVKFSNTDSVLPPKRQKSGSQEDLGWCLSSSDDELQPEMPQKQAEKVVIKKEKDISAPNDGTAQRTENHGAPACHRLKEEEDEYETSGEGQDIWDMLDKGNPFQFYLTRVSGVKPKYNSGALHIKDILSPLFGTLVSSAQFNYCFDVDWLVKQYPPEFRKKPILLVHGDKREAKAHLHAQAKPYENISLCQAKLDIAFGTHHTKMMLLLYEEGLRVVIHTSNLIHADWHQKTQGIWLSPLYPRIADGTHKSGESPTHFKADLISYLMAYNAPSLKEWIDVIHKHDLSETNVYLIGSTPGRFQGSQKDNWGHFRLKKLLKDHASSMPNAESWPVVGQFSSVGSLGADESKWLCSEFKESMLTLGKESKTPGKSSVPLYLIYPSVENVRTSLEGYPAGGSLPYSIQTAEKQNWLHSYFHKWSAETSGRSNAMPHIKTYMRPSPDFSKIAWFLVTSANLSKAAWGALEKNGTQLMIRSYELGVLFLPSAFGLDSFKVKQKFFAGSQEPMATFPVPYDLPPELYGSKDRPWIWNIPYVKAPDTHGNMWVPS

`CC[C@@]1(O)C(=O)OCc2c1cc1n(c2=O)Cc2cc3c(CN(C)C)c(O)ccc3nc2-1` [topotecan, reference compound]: the IC50 with HeLa cells [1] (Homo sapiens, EZ4U assay, read-out: concentration causing the death of half the HeLa cells) was found to be 2 µM.

For orientation: CC50 means the concentration that lowers cell viability or growth by half. Turning to `O=C(OC[C@H]1O[C@@H](n2cc(I)c(=O)[nH]c2=O)[C@H](OC(=O)c2ccccc2)[C@@H]1OC(=O)c1ccccc1)c1ccccc1` [Compound 2d, 2′,3′,5′-tri-O-benzoyl-5-iodouridine], the IC50 at Tdp1 was 0.6 ± 0.9 µM. The “change of cytotoxicity of the compound in the presence of topotecan (synergy)” value (“change of cytotoxicity of the compound” for short) with HeLa cells [2] was “Inactive”. Moreover, the CC50 at 3 days in data set [3] was above 100 µM.

As to `Cc1cn([C@@H]2O[C@H](CO)[C@@H](O)[C@H]2O)c(=O)[nH]c1=O` [Compound 1e, 5-Methyluridine (Ribothymidine), reference compound], the IC50 on Tdp1 is above 50 µM.

With `COc1ccn([C@@H]2O[C@H](COC(=O)c3ccccc3)[C@@H](OC(=O)c3ccccc3)[C@H]2OC(=O)c2ccccc2)c(=O)n1` [Compound 7, 2′,3′,5′-Tri-O-benzoyl-2-oxo-4-metoxypyrimidine], at Tdp1, the IC50 worked out at 2.91 ± 0.01 µM. Moreover, the “change of cytotoxicity of the compound” value in the data set on HeLa cells [2] is “significantly (p = 0.05, Mann–Whitney U test) enhanced; also recorded: synergistic effect with topotecan; also recorded: enhanced the cytotoxicity”. In addition, the “sensitizing effect on cytotoxicity of topotecan” value (“sensitizing effect” for short) with HeLa cells [2] (setting [4]) was “doubled the cytotoxicity of topotecan; also recorded: doubling topotecan’s activity”. Besides, the CC50 at 3 days in data set [3] was above 100 µM. For the same molecule, the cells died in the data set with HeLa cells [1] was 30–45%.

For the molecule `O=C(OCC1OC(n2cc(F)c(=O)[nH]c2=O)C(OC(=O)c2ccccc2)C1OC(=O)c1ccccc1)c1ccccc1` (stereo not drawn) [Compound 2b, 2′,3′,5′-Tri-O-benzoyl-5-fluorouridine], the IC50 on Tdp1 was 8.5 ± 1.4 µM. The “change of cytotoxicity of the compound” value with HeLa cells [2] is “Inactive”. Further, the CC50 at 3 days in data set [3] is above 100 µM. Besides, in the data set with HeLa cells [1], the cells died was 30–45%.

Consider `O=c1[nH]c(=O)n([C@@H]2O[C@H](CO)[C@@H](O)[C@H]2O)cc1F` [Compound 1b, 5-Fluorouridine, reference compound], for which the IC50 at Tdp1 was above 50 µM.

On to `Cc1cc(=O)[nH]c(=O)n1[C@@H]1O[C@H](COC(=O)c2ccccc2)[C@@H](OC(=O)c2ccccc2)[C@H]1OC(=O)c1ccccc1` [Compound 2g, 2′,3′,5′-Tri-O-benzoyl-6-methyluridine], for which the IC50 at Tdp1 is 3.4 ± 0.2 µM. Further, the “change of cytotoxicity of the compound” value in the data set on HeLa cells [2] is given as “significantly (p = 0.05, Mann–Whitney U test) enhanced; also recorded: synergistic effect with topotecan; also recorded: enhanced the cytotoxicity”. Besides, the “sensitizing effect” value in the data set on HeLa cells [2] (setting [4]) was “doubled the cytotoxicity of topotecan; also recorded: doubling topotecan’s activity”. The CC50 at 3 days in data set [3] was above 100 µM.

`O=C(OC[C@H]1O[C@@H](n2ccc(=O)nc2)[C@H](OC(=O)c2ccccc2)[C@@H]1OC(=O)c1ccccc1)c1ccccc1` [Compound 5, 1-(2′,3′,5′-Tri-O-benzoyl-β-D-ribofuranosyl)-4-pyrimidone]: the IC50 on Tdp1 was 18 ± 1 µM. Also, the “change of cytotoxicity of the compound” value with HeLa cells [2] is “significant only at the maximum concentration, 100 μM; also recorded: at a concentration of 20 μM, no synergy with topotecan was observed; also recorded: enhanced the cytotoxicity”. Moreover, the “sensitizing effect” value in the data set on HeLa cells [2] (compound at 50 μM, various doses of topotecan (significant at 10 μM)) was “weak sensitizing effect”.

In the case of `Nc1ccn([C@@H]2O[C@H](COC(=O)c3ccccc3)[C@@H](OC(=O)c3ccccc3)[C@H]2OC(=O)c2ccccc2)c(=O)n1` [Compound 8, 2′,3′,5′-tri-O-benzoylcytidine], the IC50 at Tdp1 was 4.3 ± 0.7 µM. The “change of cytotoxicity of the compound” value in the data set on HeLa cells [2] is reported as “significantly (p = 0.05, Mann–Whitney U test) enhanced; also recorded: synergistic effect with topotecan; also recorded: enhanced the cytotoxicity”. Moreover, the “sensitizing effect” value in the data set with HeLa cells [2] (setting [4]) is given as “doubled the cytotoxicity of topotecan; also recorded: doubling topotecan’s activity”. For the same molecule, in data set [3], the CC50 at 3 days is above 100 µM.

For the molecule `O=c1[nH]c(=O)n([C@@H]2O[C@H](CO)[C@@H](O)[C@H]2O)cc1I` [Compound 1d, 5-Iodouridine, reference compound], the IC50 on Tdp1 is above 50 µM.

For the molecule `Cc1cn([C@@H]2O[C@H](COC(=O)c3ccccc3)[C@@H](OC(=O)c3ccccc3)[C@H]2OC(=O)c2ccccc2)c(=O)[nH]c1=O` [Compound 2e, 2′,3′,5′-Tri-O-benzoyl-5-methyluridine], the IC50 on Tdp1 came to 2.7 ± 0.6 µM. The “change of cytotoxicity of the compound” value in the data set with HeLa cells [2] is given as “Inactive”. In data set [3], the CC50 at 3 days is above 100 µM.

For `O=c1ccn([C@@H]2O[C@H](CO)[C@@H](O)[C@H]2O)c(=O)[nH]1` [Compound 1a, Uridine, reference compound], the IC50 at Tdp1 is above 50 µM.

Turning to `O=c1[nH]c(=O)n([C@@H]2O[C@H](CO)[C@@H](O)[C@H]2O)cc1Cl` [Compound 1f, 5-Chlorouridine, reference compound], the IC50 at Tdp1 is above 50 µM.

On to `O=C(OC[C@H]1O[C@@H](n2ccc(=O)[nH]c2=O)[C@H](OC(=O)c2ccccc2)[C@@H]1OC(=O)c1ccccc1)c1ccccc1` [Compound 2a, 2′,3′,5′-tri-O-benzoyluridine], for which the IC50 on Tdp1 was determined as 6.3 ± 0.4 µM. In addition, in the data set on HeLa cells [2], the “change of cytotoxicity of the compound” value is “Inactive”.

Turning to `O=C(OCC1OC(n2cc(Cl)c(=O)[nH]c2=O)C(OC(=O)c2ccccc2)C1OC(=O)c1ccccc1)c1ccccc1` (stereo not drawn) [Compound 2f, 2′,3′,5′-Tri-O-benzoyl-5-chlorouridine], the IC50 at Tdp1 stood at 3.6 ± 1.1 µM. Further, in the data set on HeLa cells [2], the “change of cytotoxicity of the compound” value is on record as “Inactive”. For the same molecule, the CC50 at 3 days in data set [3] is above 100 µM.

On to `O=c1[nH]c(=O)n([C@@H]2O[C@H](CO)[C@@H](O)[C@H]2O)cc1Br` [Compound 1c, 5-bromouridine, reference compound], for which, at Tdp1, the IC50 was above 50 µM.

As to `O=C(O[C@@H]1[C@H](OC(=O)c2ccccc2)[C@@H](CO)O[C@H]1n1ccc(=O)[nH]c1=O)c1ccccc1` [Compound 4a, 2′,3′-di-O-benzoyluridine], on Tdp1, the IC50 was 23 ± 6 µM. In addition, in data set [3], the half-maximal cytotoxic concentration (CC50) at 3 days is above 100 µM.

Turning to `O=C(OC[C@H]1O[C@@H](n2ccc(=O)[nH]c2=O)[C@H](O)[C@@H]1O)c1ccccc1` [Compound 3a, 5′-O-benzoyluridine], on Tdp1, the IC50 was above 100 µM.

For the molecule `CC(=O)O[C@@H]1O[C@H](COC(=O)c2ccccc2)[C@@H](OC(=O)c2ccccc2)[C@H]1OC(=O)c1ccccc1` [Compound 9, 1-O-acetyl-2,3,5-tri-O-Bz-β-D-Rib], the IC50 at Tdp1 was 4.2 ± 0.3 µM.

As to `O=C(OC[C@H]1O[C@@H](n2cccnc2=O)[C@H](OC(=O)c2ccccc2)[C@@H]1OC(=O)c1ccccc1)c1ccccc1` [Compound 6, 1-(2′,3′,5′-Tri-O-benzoyl-β-D-ribofuranosyl)-2-pyrimidone], the IC50 at Tdp1 stood at 6 ± 0.7 µM. Also, the “change of cytotoxicity of the compound” value in the data set on HeLa cells [2] is “statistically insignificant”. For the same molecule, in data set [3], the CC50 at 3 days is above 100 µM.

These data come from article PMC7465190, “Inhibition of Tyrosyl-DNA Phosphodiesterase 1 by Lipophilic Pyrimidine Nucleosides” (Molecules, 2020).
